Measured values from patent publication US20090005363A1, “Organic Compounds” (priority 2005, published 2009).

biological target: mGluR5 (Homo sapiens, UniProt P41594); assay: inhibition of the glutamate induced elevation of intracellular Ca2+ concentration; settings: inhibition of glutamate induced elevation of intracellular Ca2+ concentration at 10 μM
Sequence (P41594 21-1180 isoform P41594-2 limits assumed): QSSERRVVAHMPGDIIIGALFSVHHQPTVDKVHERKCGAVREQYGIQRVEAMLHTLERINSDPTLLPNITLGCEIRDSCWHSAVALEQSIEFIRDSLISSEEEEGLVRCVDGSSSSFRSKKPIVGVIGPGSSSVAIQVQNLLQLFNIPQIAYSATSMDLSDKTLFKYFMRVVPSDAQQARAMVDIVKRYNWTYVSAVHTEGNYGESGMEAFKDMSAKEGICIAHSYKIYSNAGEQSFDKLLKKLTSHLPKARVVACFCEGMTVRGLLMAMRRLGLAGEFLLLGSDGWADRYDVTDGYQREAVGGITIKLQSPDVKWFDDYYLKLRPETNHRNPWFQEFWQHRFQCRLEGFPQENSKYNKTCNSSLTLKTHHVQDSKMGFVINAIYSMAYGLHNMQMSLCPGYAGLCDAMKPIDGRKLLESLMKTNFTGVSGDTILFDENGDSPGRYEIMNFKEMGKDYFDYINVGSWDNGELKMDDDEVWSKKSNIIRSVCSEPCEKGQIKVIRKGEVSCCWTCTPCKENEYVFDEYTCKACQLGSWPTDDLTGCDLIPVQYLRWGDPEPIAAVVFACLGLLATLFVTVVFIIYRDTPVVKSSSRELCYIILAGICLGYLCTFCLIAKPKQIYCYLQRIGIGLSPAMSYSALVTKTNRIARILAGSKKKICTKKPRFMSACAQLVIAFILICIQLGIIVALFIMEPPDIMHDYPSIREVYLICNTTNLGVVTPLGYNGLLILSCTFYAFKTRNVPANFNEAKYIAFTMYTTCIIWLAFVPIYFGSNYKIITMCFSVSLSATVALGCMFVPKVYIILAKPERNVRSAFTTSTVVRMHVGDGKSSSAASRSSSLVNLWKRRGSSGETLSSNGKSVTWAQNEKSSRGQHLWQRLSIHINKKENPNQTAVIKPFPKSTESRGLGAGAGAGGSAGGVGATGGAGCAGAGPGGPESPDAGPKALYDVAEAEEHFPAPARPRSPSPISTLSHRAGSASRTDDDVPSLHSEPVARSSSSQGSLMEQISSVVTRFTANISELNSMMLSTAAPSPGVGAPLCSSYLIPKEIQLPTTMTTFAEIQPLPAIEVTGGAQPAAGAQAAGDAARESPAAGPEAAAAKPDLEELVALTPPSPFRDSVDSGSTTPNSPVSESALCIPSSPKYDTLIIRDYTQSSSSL
Text: This can be determined in vitro for example at recombinant human metabotropic glutamate receptors, especially PLC-coupled subtypes thereof such as mGluR5, using different procedures like, for example, measurement of the inhibition of the agonist induced elevation of intracellular Ca^2+ concentration in accordance with L. P. Daggett et al., Neuropharm.

| mGluR5 Activity inh. at 10 μM [%] | SMILES |
| --- | --- |
| 97 | Cc1ccc(Nc2ccc(C(=O)N3CCC[C@H](C)C3)cn2)cn1 [Compound 4.13a, (S-3-Methyl-piperidin-1-yl)-[6-(6-methyl-pyridin-3-ylamino)-pyridin-3-yl]-methanone] |
| 98 | Cc1ccc(Nc2ncc(C(=O)N3CCCC4CCCC43)cc2Cl)cn1 (stereo not shown) [Compound 4.25, [5-Chloro-6-(6-methyl-pyridin-3-ylamino)-pyridin-3-yl]-(octahydro-[1]pyridin-1-yl)-methanone] |
| 93 | Cc1ccc(Nc2ncc(C(=O)N3CCC[C@@H]4CCC[C@@H]43)cc2Cl)cn1 [Compound 4.26, [5-Chloro-6-(6-methyl-pyridin-3-ylamino)-pyridin-3-yl]-(4aS,7aS)-octahydro-[1]pyridin-1-yl-methanone] |

same assay, conditions: read-out: mGluR5 Activity inh. at 10 μM [%]

| inhibition at 10 µM [%] | SMILES |
| --- | --- |
| 100 | Cc1ccc(Nc2ncc(C(=O)N3CCSCC3)cc2Cl)cn1 [Compound 2.15, [5-Chloro-6-(6-methyl-pyridin-3-ylamino)-pyridin-3-yl]-thiomorpholin-4-yl-methanone] |
| 97 | Cc1ncc(Nc2ncc(C(=O)N3CCCC(C)C3)cc2Cl)cn1 (stereo not shown) [Compound 2.16, [5-Chloro-6-(2-methyl-pyrimidin-5-ylamino)-pyridin-3-yl]-(3-methyl-piperidin-1-yl)-methanone] |
| 97 | Cc1ncc(Nc2ncc(C(=O)N3CCCCC3)cc2Cl)cn1 [Compound 2.17, [5-Chloro-6-(2-methyl-pyrimidin-5-ylamino)-pyridin-3-yl]-piperidin-1-yl-methanone] |
| 100 | Cc1ncc(Nc2ncc(C(=O)N3CCCCCC3)cc2Cl)cn1 [Compound 2.18, Azepan-1-yl-[5-chloro-6-(2-methyl-pyrimidin-5-ylamino)-pyridin-3-yl]-methanone] |
| 100 | CC[C@@H]1CCCCN1C(=O)c1cnc(Nc2ccc(C(F)(F)F)nc2)c(Cl)c1 [Compound 2.23, [5-Chloro-6-(6-trifluoromethyl-pyridin-3-ylamino)-pyridin-3-yl]-((R)-2-ethyl-piperidin-1-yl)-methanone] |
| 97 | CC[C@@H]1CCCCN1C(=O)c1cnc(Nc2ccc(OC)nc2)c(Cl)c1 [Compound 2.24, [5-Chloro-6-(6-methoxy-pyridin-3-ylamino)-pyridin-3-yl]-((R)-2-ethyl-piperidin-1-yl)-methanone] |
| 97 | Cc1ccc(Oc2ncc(C(=O)N3CCCCC3)cc2Cl)cn1 [Compound 3.2, [5-Chloro-6-(6-methyl-pyridin-3-yloxy)-pyridin-3-yl]-piperidin-1-yl-methanone] |
| 90 | Cc1ccc(Oc2ncc(C(=O)N3CCCCCC3)cc2Cl)cn1 [Compound 3.3, Azepan-1-yl-[5-chloro-6-(6-methyl-pyridin-3-yloxy)-pyridin-3-yl]-methanone] |
| 99 | Cc1ccc(Nc2ccc(C(=O)N3CCCCC3)cn2)cn1 [Compound 4.1, [6-(6-Methyl-pyridin-3-ylamino)-pyridin-3-yl]-piperidin-1-yl-methanone] |
| 97 | O=C(c1ccc(Nc2ccc(Cl)cc2)nc1)N1CCCCCC1 [Compound 4.2, Azepan-1-yl-[6-(4-chloro-phenylamino)-pyridin-3-yl]-methanone] |
| 92 | O=C(c1ccc(Nc2ccc(Cl)cc2)nc1)N1CCCC(F)(F)C1 [Compound 4.3, [6-(4-Chloro-phenylamino)-pyridin-3-yl]-(3,3-difluoro-piperidin-1-yl)-methanone] |
| 98 | CC1CCN(C(=O)c2ccc(Nc3ccc(Cl)cc3)nc2)CC1 [Compound 4.4, [6-(4-Chloro-phenylamino)-pyridin-3-yl]-(4-methyl-piperidin-1-yl)-methanone] |
| 88 | CC1CC(C)CN(C(=O)c2ccc(Nc3ccc(Cl)cc3)nc2)C1 (stereo not shown) [Compound 4.5, [6-(4-Chloro-phenylamino)-pyridin-3-yl]-(3,5-dimethyl-piperidin-1-yl)-methanone] |
| 94 | O=C(c1ccc(Nc2ccc(Cl)cc2)nc1)N1CCCC2CCCCC21 (stereo not shown) [Compound 4.8, [6-(4-Chloro-phenylamino)-pyridin-3-yl]-(octahydro-quinolin-1-yl)-meth anone] |
| 96 | Cc1ccc(Nc2ccc(C(=O)N3CCC[C@@H](C)C3)cn2)cn1 [Compound 4.13b, (R-3-Methyl-piperidin-1-yl)-[6-(6-methyl-pyridin-3-ylamino)-pyridin-3-yl]-methanone] |
| 98 | Cc1ccc(Nc2ccc(C(=O)N3CCCCCC3)cn2)cn1 [Compound 4.15, Azepan-1-yl-[6-(6-methyl-pyridin-3-ylamino)-pyridin-3-yl]-methanone] |
| 81 | Cc1ccc(Nc2ccc(C(=O)N3CCCCCCC3)cn2)cn1 [Compound 4.16, Azocan-1-yl-[6-(6-methyl-pyridin-3-ylamino)-pyridin-3-yl]-methanone] |
| 98 | CCC1CCCCN1C(=O)c1cnc(Nc2ccc(C)nc2)c(Cl)c1 (stereo not shown) [Compound 4.17, [5-Chloro-6-(6-methyl-pyridin-3-ylamino)-pyridin-3-yl]-(2-ethyl-piperidin-1-yl)-methanone] |

| inhibition at 10 µM [%] | SMILES |
| --- | --- |
| 97 | CC[C@@H]1CCCCN1C(=O)c1cnc(Nc2ccc(C)nc2)c(Cl)c1 [Compound 4.18, [5-Chloro-6-(6-methyl-pyridin-3-ylamino)-pyridin-3-yl]-((R)-2-ethyl-piperidin-1-yl)-methanone] |
| 97 | CC[C@H]1CCCCN1C(=O)c1cnc(Nc2ccc(C)nc2)c(Cl)c1 [Compound 4.19, [5-Chloro-6-(6-methyl-pyridin-3-ylamino)-pyridin-3-yl]-((S)-2-ethyl-piperidin-1-yl)-methanone] |
| 100 | Cc1ccc(Nc2ncc(C(=O)N3CCCC(C)C3C)cc2Cl)cn1 (stereo not shown) [Compound 4.20, [5-Chloro-6-(6-methyl-pyridin-3-ylamino)-pyridin-3-yl]-(2,3-dimethyl-piperidin-1-yl)-methanone] |
| 99 | Cc1ccc(Nc2ncc(C(=O)N3CCC[C@H](C)[C@@H]3C)cc2Cl)cn1 [Compound 4.21, [5-Chloro-6-(6-methyl-pyridin-3-ylamino)-pyridin-3-yl]-((2S,3S)-2,3-dimethyl-piperidin-1-yl)-methanone] |
| 98 | Cc1ccc(Nc2ncc(C(=O)N3CCC[C@@H](C)[C@H]3C)cc2Cl)cn1 [Compound 4.22, [5-Chloro-6-(6-methyl-pyridin-3-ylamino)-pyridin-3-yl]-((2R,3R)-2,3-dimethyl-piperidin-1-yl)-methanone] |
| 95 | Cc1ccc(Nc2ncc(C(=O)N3CCCC[C@@H]3C)cc2Cl)cn1 [Compound 4.23, [5-Chloro-6-(6-methyl-pyridin-3-ylamino)-pyridin-3-yl]-((S)-2-methyl-piperidin-1-yl)-methanone] |
| 92 | Cc1ccc(Nc2ncc(C(=O)N3CCCC[C@H]3C)cc2Cl)cn1 [Compound 4.24, [5-Chloro-6-(6-methyl-pyridin-3-ylamino)-pyridin-3-yl]-((R)-2-methyl-piperidin-1-yl)-methanone] |
| 93 | Cc1ccc(Nc2ncc(C(=O)N3CCCCC3C(C)C)cc2Cl)cn1 (stereo not shown) [Compound 4.28, [5-Chloro-6-(6-methyl-pyridin-3-ylamino)-pyridin-3-yl]-(2-isopropyl-piperidin-1-yl)-methanone] |
| 86 | Cc1ccc(Nc2ncc(C(=O)N3CCCC[C@@H]3C(C)C)cc2Cl)cn1 [Compound 4.29, [5-Chloro-6-(6-methyl-pyridin-3-ylamino)-pyridin-3-yl]-((R)-2-isopropyl-piperidin-1-yl)-methanone] |
| 96 | Cc1ccc(Nc2ncc(C(=O)N3CCCC[C@H]3C(C)C)cc2Cl)cn1 [Compound 4.30, [5-Chloro-6-(6-methyl-pyridin-3-ylamino)-pyridin-3-yl]-((S)-2-isopropyl-piperidin-1-yl)-methanone] |
| 98 | CCCC1CCCCN1C(=O)c1cnc(Nc2ccc(C)nc2)c(Cl)c1 (stereo not shown) [Compound 4.34, [5-Chloro-6-(6-methyl-pyridin-3-ylamino)-pyridin-3-yl]-(2-propyl-piperidin-1-yl)-methanone] |
| 85 | CCC[C@H]1CCCCN1C(=O)c1cnc(Nc2ccc(C)nc2)c(Cl)c1 [Compound 4.35, [5-Chloro-6-(6-methyl-pyridin-3-ylamino)-pyridin-3-yl]-((S)-2-propyl-piperidin-1-yl)-methanone] |
| 94 | CCC1CCCN(C(=O)c2cnc(Nc3ccc(C)nc3)c(Cl)c2)C1CC (stereo not shown) [Compound 4.37, [5-Chloro-6-(6-methyl-pyridin-3-ylamino)-pyridin-3-yl]-(2,3-diethyl-piperidin-1-yl)-methanone] |
| 98 | CCCCC1CCCCN1C(=O)c1cnc(Nc2ccc(C)nc2)c(Cl)c1 (stereo not shown) [Compound 4.38, (2-Butyl-piperidin-1-yl)-[5-chloro-6(6-methyl-pyridin-3-ylamino)-pyridin-3-yl]-methanone] |
| 96 | CCC(CC)C1CCCCN1C(=O)c1cnc(Nc2ccc(C)nc2)c(Cl)c1 (stereo not shown) [Compound 4.39, [5-Chloro-6-(6-methyl-pyridin-3-ylamino)-pyridin-3-yl]-[2-(1-ethyl-propyl)-piperidin-1-yl]-methanone] |
| 98 | CCC1C(C)CCCN1C(=O)c1cnc(Nc2ccc(C)nc2)c(Cl)c1 (stereo not shown) [Compound 4.40, [5-Chloro-6-(6-methyl-pyridin-3-ylamino)-pyridin-3-yl]-(2-ethyl-3-methyl-piperidin-1-yl)-methanone] |
| 96 | Cc1ccc(Nc2ncc(C(=O)N3CCCCC3c3ccccc3)cc2Cl)cn1 (stereo not shown) [Compound 4.41, [5-Chloro-6-(6-methyl-pyridin-3-ylamino)-pyridin-3-yl]-(2-phenyl-piperidin-1-yl)-methanone] |

| SMILES | inhibition at 10 µM [%] |
| --- | --- |
| O=C(c1ccc(Nc2ccc(Cl)cc2)nc1)N1CC2CCC(CC2)C1 [Compound 4.9, (3-Aza-bicyclo[3.2.2]non-3-yl)-[6-(4-chloro-phenylamino)-pyridin-3-yl]-methanone] | 37 |
| O=C(c1ccc(Nc2ccc(Cl)cc2)nc1)N1C2CCC1CC(O)C2 (stereo not shown) [Compound 4.11, [6-(4-Chloro-phenylamino)-pyridin-3-yl]-(3-hydroxy-8-aza-bicyclo[3.2.1]oct-8-yl)-methanone] | 51 |
